Data taken from patent US4093796A, “Antibiotic derivatives of polyene macrolide group and method of obtaining the same” (Politechnika Gdanska, priority 1971, dated 1978).
Values after ≈ are worked out from the molar mass of the structure shown.

What was measured:
[1] = tested on: tested microorganisms; experiment: antimicrobial activity in liquid nutrient medium (serial dilution, turbidity); format: cell-based
Description: (b) determination of the antimicrobial activity of antibiotics and their derivatives in liquid nutrient medium-- table 2.
The antimicrobial activity of antibiotics and their derivatives in liquid nutrient medium has been determined by making serial dilutions of antibiotics in the manner described above and by mixing of 0.5 ml of antibiotic solution with 4.5 ml of medium inoculated with tested microorganisms and prepared after Sabouraud without agar and with the addition of tarchocilin in the amount of 25 mg per 1 l. Solutions were allowed to stand for 48 hours at the temperature of 32° C.
Minimum concentration that inhibits the microorganisms growth has been determined on the basis of turbidity determined by extinction growth at […]; results are compared in table 2.

[2] = tested on: Candida albicans; experiment: inhibition of pathogenic strains isolated from contaminated human members, Candida albicans; format: cell-based; settings: 12 strains studied
Description: (§3) Studies were also conducted on the activity of the glucose derivative of nystatin, as compared with nystatin, in relation to a series of pathogenic strains of Candida and Geotrichum isolated from contaminated human members.

[3] = tested on: Candida sp.; experiment: inhibition of pathogenic strains isolated from contaminated human members, Candida sp.; format: cell-based; settings: 8 strains studied
Description: as §3

[4] = tested on: Saccahromyces cerevisiae; experiment: antimicrobial activity in solid nutrient medium (serial dilution), Saccharomyces cerevisiae; format: cell-based; settings: solid Sabouraud medium, 36° C, 24 hours
Description: (§1) (a) determination of the antimicrobial activity of antibiotics and their derivatives in solid nutrient medium-- table 1
(§2) The antimicrobial activity in solid nutrient medium has been estimated with the aid of the serial dilution method as follows: 1 mg of antibiotic was dissolved in 1 ml of dimethylsulphoxide and diluted with 9 ml of sterile water. Serial dilutions in water had been performed and the minimum concentration inhibiting the growth of standard strains of Candida albicans and Saccahromyces cerevisiae estimated: 0.5 ml of the antibiotic solution was mixed in a Petri dish 10 cm in diameter with 9.5 ml of Sabouraud medium having a temperature of about 60° C. After mixing, solidifying the nutrient agar and inoculating the test microorganism on the surface, they were incubated at 36° C for 24 hours. The minimum inhibitory concentration was stated on the basis of observed absence of microorganism growth.

[5] = tested on: Geotrichum sp.; experiment: inhibition of pathogenic strains isolated from contaminated human members, Geotrichum sp.; format: cell-based; settings: 12 strains studied
Description: as §3

[6] = tested on: Candida albicans; experiment: antimicrobial activity in solid nutrient medium (serial dilution), Candida albicans; format: cell-based; settings: solid Sabouraud medium, 36° C, 24 hours
Description: as §1, §2

[7] = liquid medium after Sabouraud without agar, 48 hours, 32° C, extinction at 660 mm
[8] = Candida albicans after 24 hrs, 3.12 mcg/ml
[9] = Candida albicans after 24 hrs, 6.25 mcg/ml
[10] = Candida albicans after 24 hrs, 12.5 mcg/ml
[11] = Candida albicans after 24 hrs, 25.0 mcg/ml
[12] = Candida albicans after 24 hrs, 50.0 mcg/ml
[13] = Candida albicans after 48 hrs, 3.12 mcg/ml
[14] = Candida albicans after 48 hrs, 6.25 mcg/ml
[15] = Candida albicans after 48 hrs, 12.5 mcg/ml
[16] = Candida albicans after 48 hrs, 25.0 mcg/ml
[17] = Candida albicans after 48 hrs, 50.0 mcg/ml
[18] = Candida sp. after 24 hrs, 3.12 mcg/ml
[19] = Candida sp. after 24 hrs, 6.25 mcg/ml
[20] = Candida sp. after 24 hrs, 12.5 mcg/ml
[21] = Candida sp. after 24 hrs, 25.0 mcg/ml
[22] = Candida sp. after 24 hrs, 50.0 mcg/ml
[23] = Candida sp. after 48 hrs, 3.12 mcg/ml
[24] = Candida sp. after 48 hrs, 6.25 mcg/ml
[25] = Candida sp. after 48 hrs, 12.5 mcg/ml
[26] = Candida sp. after 48 hrs, 25.0 mcg/ml
[27] = Candida sp. after 48 hrs, 50.0 mcg/ml
[28] = Geotrichum sp. after 24 hrs, 3.12 mcg/ml
[29] = Geotrichum sp. after 24 hrs, 6.25 mcg/ml
[30] = Geotrichum sp. after 24 hrs, 12.5 mcg/ml
[31] = Geotrichum sp. after 24 hrs, 25.0 mcg/ml
[32] = Geotrichum sp. after 24 hrs, 50.0 mcg/ml
[33] = Geotrichum sp. after 48 hrs, 3.12 mcg/ml
[34] = Geotrichum sp. after 48 hrs, 6.25 mcg/ml
[35] = Geotrichum sp. after 48 hrs, 12.5 mcg/ml
[36] = Geotrichum sp. after 48 hrs, 25.0 mcg/ml
[37] = Geotrichum sp. after 48 hrs, 50.0 mcg/ml

## CC1C=CC=CC=CC=CC=CC=CC=CC(OC2OC(C)C(O)C(N)C2O)CC2OC(O)(CC(O)CC(O)C(O)CCC(O)CC(O)CC(=O)OC(C)C(C)C1O)CC(O)C2C(=O)O (stereo not drawn) [amphotericin B]
[1]; 48 h
  MIC: 0.05 µg/mL (≈ 0.0541 µM)

## C[C@@H]1[C@H](O)[C@@H](C)/C=C/C=C/C=C/C=C/C=C/C=C/C=C/[C@H](O[C@@H]2O[C@H](C)[C@@H](O)[C@H](N)[C@@H]2O)C[C@@H]2O[C@](O)(C[C@@H](O)[C@H](O)CC[C@@H](O)CC(=O)C[C@@H](O)CC(=O)O[C@H]1C)C[C@H](O)[C@H]2C(=O)O [mycoheptin]
[1]; [7]
  MIC: 2.5 µg/mL (≈ 2.71 µM)

## CC1C=CC=CCCC=CC=CC=CC=CC(OC2OC(C)C(O)C(N)C2O)CC2OC(O)(CC(O)C(O)CCC(O)CC(O)CC(O)CC(=O)OC(C)C(C)C1O)CC(O)C2C(=O)O (stereo not drawn) [nystatin A1]
[1]; 48 h
  MIC: 0.5 µg/mL (≈ 0.54 µM)

## C[C@@H]1[C@H](O)[C@@H](C)/C=C/C=C/CC/C=C/C=C/C=C/C=C/[C@H](O[C@@H]2O[C@H](C)[C@@H](O)[C@H](NC3O[C@H](CO)[C@@H](O)[C@H](O)[C@H]3O)[C@@H]2O)C[C@@H]2O[C@](O)(C[C@@H](O)[C@H](O)CC[C@@H](O)C[C@@H](O)C[C@@H](O)CC(=O)O[C@H]1C)C[C@H](O)[C@H]2C(=O)[O-].[Na+] (stereo partly drawn)
other
  solubility / dispersion in water: form true solutions free of colloids

## candicidin
[1]; [7]
  MIC: 0.001 µg/mL

## C[C@@H]1[C@H](O)[C@@H](C)/C=C/C=C/CC/C=C/C=C/C=C/C=C/[C@H](O[C@@H]2O[C@H](C)[C@@H](O)[C@H](NC3O[C@H](CO)[C@@H](O)[C@H](O)[C@H]3O)[C@@H]2O)C[C@@H]2O[C@](O)(C[C@@H](O)[C@H](O)CC[C@@H](O)C[C@@H](O)C[C@@H](O)CC(=O)O[C@H]1C)C[C@H](O)[C@H]2C(=O)O (stereo partly drawn) [glucose derivative of nystatin]
[2]; [8]
  Number of strains the growth of which has been inhibited: 1 strains
[2]; [9]
  Number of strains the growth of which has been inhibited: 11 strains
[2]; [10]
  Number of strains the growth of which has been inhibited: 0 strains
[2]; [11]
  Number of strains the growth of which has been inhibited: 0 strains
[2]; [12]
  Number of strains the growth of which has been inhibited: 0 strains
[2]; [13]
  Number of strains the growth of which has been inhibited: 0 strains
[2]; [14]
  Number of strains the growth of which has been inhibited: 0 strains
[2]; [15]
  Number of strains the growth of which has been inhibited: 12 strains
[2]; [16]
  Number of strains the growth of which has been inhibited: 0 strains
[2]; [17]
  Number of strains the growth of which has been inhibited: 0 strains
[3]; [18]
  Number of strains the growth of which has been inhibited: 2 strains
[3]; [19]
  Number of strains the growth of which has been inhibited: 5 strains
[3]; [20]
  Number of strains the growth of which has been inhibited: 0 strains
[3]; [21]
  Number of strains the growth of which has been inhibited: 1 strains
[3]; [22]
  Number of strains the growth of which has been inhibited: 0 strains
[3]; [23]
  Number of strains the growth of which has been inhibited: 0 strains
[3]; [24]
  Number of strains the growth of which has been inhibited: 2 strains
[3]; [25]
  Number of strains the growth of which has been inhibited: 3 strains
[3]; [26]
  Number of strains the growth of which has been inhibited: 2 strains
[3]; [27]
  Number of strains the growth of which has been inhibited: 1 strains
[4]
  Minimum inhibitory concentration against cerevisiae: 2 µg/mL (≈ 1.84 µM)
[5]; [28]
  Number of strains the growth of which has been inhibited: 0 strains
[5]; [29]
  Number of strains the growth of which has been inhibited: 5 strains
[5]; [30]
  Number of strains the growth of which has been inhibited: 7 strains
[5]; [31]
  Number of strains the growth of which has been inhibited: 0 strains
[5]; [32]
  Number of strains the growth of which has been inhibited: 0 strains
[5]; [33]
  Number of strains the growth of which has been inhibited: 0 strains
[5]; [34]
  Number of strains the growth of which has been inhibited: 0 strains
[5]; [35]
  Number of strains the growth of which has been inhibited: 9 strains
[5]; [36]
  Number of strains the growth of which has been inhibited: 3 strains
[5]; [37]
  Number of strains the growth of which has been inhibited: 0 strains
[6]
  Minimum inhibitory concentration against Candida albicans: 2 µg/mL (≈ 1.84 µM)

## C[C@@H]1[C@H](O)[C@@H](C)/C=C/C=C/CC/C=C/C=C/C=C/C=C/C(O[C@H]2O[C@H](C)[C@@H](O)[C@H](N)[C@@H]2O)CC2O[C@](O)(CC(O)C(O)CCC(O)CC(O)CC(O)CC(=O)O[C@H]1C)CC(O)C2C(=O)O (stereo partly drawn) [nystatin]
[2]; Candida albicans after 24 hrs, 1.56 mcg/ml
  Number of strains the growth of which has been inhibited: 1 strains
[2]; [8]
  Number of strains the growth of which has been inhibited: 11 strains
[2]; [9]
  Number of strains the growth of which has been inhibited: 0 strains
[2]; [10]
  Number of strains the growth of which has been inhibited: 0 strains
[2]; [11]
  Number of strains the growth of which has been inhibited: 0 strains
[2]; [12]
  Number of strains the growth of which has been inhibited: 0 strains
[2]; Candida albicans after 48 hrs, 1.56 mcg/ml
  Number of strains the growth of which has been inhibited: 0 strains
[2]; [13]
  Number of strains the growth of which has been inhibited: 2 strains
[2]; [14]
  Number of strains the growth of which has been inhibited: 10 strains
[2]; [15]
  Number of strains the growth of which has been inhibited: 0 strains
[2]; [16]
  Number of strains the growth of which has been inhibited: 0 strains
[2]; [17]
  Number of strains the growth of which has been inhibited: 0 strains
[3]; Candida sp. after 24 hrs, 1.56 mcg/ml
  Number of strains the growth of which has been inhibited: 2 strains
[3]; [18]
  Number of strains the growth of which has been inhibited: 3 strains
[3]; [19]
  Number of strains the growth of which has been inhibited: 1 strains
[3]; [20]
  Number of strains the growth of which has been inhibited: 2 strains
[3]; [21]
  Number of strains the growth of which has been inhibited: 0 strains
[3]; [22]
  Number of strains the growth of which has been inhibited: 0 strains
[3]; Candida sp. after 48 hrs, 1.56 mcg/ml
  Number of strains the growth of which has been inhibited: 0 strains
[3]; [23]
  Number of strains the growth of which has been inhibited: 3 strains
[3]; [24]
  Number of strains the growth of which has been inhibited: 1 strains
[3]; [25]
  Number of strains the growth of which has been inhibited: 3 strains
[3]; [26]
  Number of strains the growth of which has been inhibited: 1 strains
[3]; [27]
  Number of strains the growth of which has been inhibited: 0 strains
[4]
  Minimum inhibitory concentration against cerevisiae: 2 µg/mL (≈ 2.16 µM)
[5]; Geotrichum sp. after 24 hrs, 1.56 mcg/ml
  Number of strains the growth of which has been inhibited: 0 strains
[5]; [28]
  Number of strains the growth of which has been inhibited: 2 strains
[5]; [29]
  Number of strains the growth of which has been inhibited: 10 strains
[5]; [30]
  Number of strains the growth of which has been inhibited: 0 strains
[5]; [31]
  Number of strains the growth of which has been inhibited: 0 strains
[5]; [32]
  Number of strains the growth of which has been inhibited: 0 strains
[5]; Geotrichum sp. after 48 hrs, 1.56 mcg/ml
  Number of strains the growth of which has been inhibited: 0 strains
[5]; [33]
  Number of strains the growth of which has been inhibited: 0 strains
[5]; [34]
  Number of strains the growth of which has been inhibited: 5 strains
[5]; [35]
  Number of strains the growth of which has been inhibited: 7 strains
[5]; [36]
  Number of strains the growth of which has been inhibited: 0 strains
[5]; [37]
  Number of strains the growth of which has been inhibited: 0 strains
[6]
  Minimum inhibitory concentration against Candida albicans: 2 µg/mL (≈ 2.16 µM)

## C[C@@H]1C/C=C/C=C/C=C/C=C/[C@H](O[C@@H]2O[C@H](C)[C@@H](O)[C@H](N)[C@@H]2O)C[C@@H]2O[C@](O)(C[C@@H](O)C[C@H]3O[C@@H]3/C=C/C(=O)O1)C[C@H](O)[C@H]2C(=O)O [pimaricin]
[1]; 48 h
  MIC: 2.5 µg/mL (≈ 3.76 µM)

## COc1cc2c(c3oc(-c4ccccc4)cc(=O)c13)C=CC(C)(C)O2 [candidin]
[1]; 48 h
  MIC: 0.2 µg/mL (≈ 0.598 µM)

## trichomycin
[1]; [7]
  MIC: 0.001 µg/mL

## CCC[C@@H]1C/C=C/C=C/C=C/C=C/[C@H](O[C@@H]2O[C@H](C)[C@@H](O)[C@H](N)[C@@H]2O)C[C@@H]2O[C@](O)(C[C@@H](O)CCCC(=O)C[C@@H](O)[C@H](CC)C(=O)O1)C[C@H](O)[C@H]2C(=O)O [rimocidin]
[1]; [7]
  MIC: 2.5 µg/mL (≈ 3.26 µM)

## C[C@@H]1[C@H](O)[C@@H](C)/C=C/C=C/CC/C=C/C=C/C=C/C=C/[C@H](O[C@@H]2O[C@H](C)[C@@H](O)[C@H](NC3O[C@H](CO)[C@@H](O)[C@H](O)[C@H]3O)[C@@H]2O)C[C@@H]2O[C@](O)(C[C@@H](O)[C@H](O)CC[C@@H](O)C[C@@H](O)C[C@@H](O)CC(=O)O[C@H]1C)C[C@H](O)[C@H]2C(=O)O (stereo partly drawn) [NGL nystatin A1]
[1]; [7]
  MIC: 1.0 µg/mL (≈ 0.919 µM)

## C[C@@H]1[C@H](O)[C@@H](C)/C=C/C=C/CC/C=C/C=C/C=C/C=C/[C@H](O[C@@H]2O[C@H](C)[C@@H](O)[C@H](NC3O[C@H](CO)[C@@H](O[C@H]4O[C@H](CO)[C@@H](O)[C@H](O)[C@H]4O)[C@H](O)[C@H]3O)[C@@H]2O)C[C@@H]2O[C@](O)(C[C@@H](O)[C@H](O)CC[C@@H](O)C[C@@H](O)C[C@@H](O)CC(=O)O[C@H]1C)C[C@H](O)[C@H]2C(=O)[O-].[Na+] (stereo partly drawn)
other
  solubility / dispersion in water: form true solutions free of colloids
